{"source": "patent US20100204181A1", "about": "“N-HALOGENATED AMINO ACID FORMULATIONS COMPRISING PHOSPHINE OR AMINE OXIDES” (ALCON RESEARCH, LTD., priority 2009, published 2010)", "key": {"[1]": {"test": "Chemical stability of N,N-dichloro-2,2-dimethyltaurine solution with and without TBPO or TMAO", "format": "physicochemical", "from_the_text": "FIG. 1 is a graph showing the stability of a 0.1 w/v % solution of N,N-dichloro-2,2-dimethyltaurine with and without 0.01 w/v % TBPO; and\nFIG. 2 is a graph showing the stability of a 0.11 w/v % solution of N,N-dichloro-2,2-dimethyltaurine with and without 0.037 w/v % TMAO.\nThe present inventors have discovered that the antimicrobial activity of N-halogenated amino acid compounds is enhanced in a formulation comprising a phosphine oxide or amine oxide compound. The enhancement is synergistic, as the phosphine oxide and amine oxide compounds tested have no intrinsic antimicrobial activity. Also the increase in antimicrobial activity of the N-halogenated amino acid compound in the presence of a phosphine oxide and/or amine oxide compound is likely not due to a chemical reaction that generates a new and more reactive chemical species."}, "S. aureus": {"test_system": "S. aureus", "test": "Viable cells per mL of S. aureus after treatment", "format": "cell-based", "conditions": "5 minutes after treatment", "protocol": "As shown above in Table 1, there were only 24 viable cells per mL measured 5 minutes after treatment with 0.001% N,N-dichloro-2,2-dimethyltaurine formulated with acetate buffer at pH 4. In contrast, there were 27429 and 910 viable cells per mL 5 minutes after treatment with a 0.001% N,N-dichloro-2,2-dimethyltaurine formulation comprising no buffer and adipic acid buffer, respectively."}}}
{"smiles": "CC(C)(CS(=O)(=O)O)N(Cl)Cl", "note": "[N,N-dichloro-2,2-dimethyltaurine]", "values": [{"measurement": "chemical stability", "setting": "[1]; 0.1 w/v % solution with and without 0.01 w/v % TBPO (FIG. 1)", "value": "not affected"}, {"measurement": "chemical stability", "setting": "[1]; 0.11 w/v % solution with and without 0.037 w/v % TMAO (FIG. 2)", "value": "not affected"}, {"measurement": "viable cells per mL", "setting": "S. aureus; 0.001% formulated with acetate buffer at pH 4", "value": 24, "unit": "cells per mL"}, {"measurement": "viable cells per mL", "setting": "S. aureus; 0.001% formulation, adipic acid buffer", "value": 910, "unit": "cells per mL"}, {"measurement": "viable cells per mL", "setting": "S. aureus; 0.001% formulation, no buffer", "value": 27429, "unit": "cells per mL"}]}
